Laboratory results reported in patent US20190060308A1, “PHARMACEUTICAL COMPOSITION COMPRISING AN OMEGA-3 FATTY ACID AND A HYDROXY-DERIVATIVE OF A STATIN AND METHODS OF USING SAME” (Amarin Pharmaceuticals Ireland Limited, priority 2012, published 2019).

How the values were obtained:
[1] = tested on: human umbilical vein endothelial cells (HUVECs); experiment: NO and ONOO^− release from HUVECs exposed to oxLDL, tandem electrochemical nanosensors (Example 3); assay type: cell-based; settings: for increase in NO/ONOO^− ratio: versus treatment with oxLDL and vehicle only, statin 1.0 μM
Procedure: An experiment was conducted to test the effects of EPA with rosuvastatin, atorvastatin or o-hydroxyatorvastatin (an active hydroxyl metabolite, “ATM”) on nitric oxide (NO) and peroxynitrite (ONOO^−) release by human umbilical vein epithelial cells (“HUVECs”) following stimulation with oxidized LDL. Nitric oxide bioavailability, peroxynitrite bioavailability, and the ratio of bioavailable nitric oxide to bioavailable peroxynitrite (NO/ONOO^−) serve as useful indicators of endothelial cell function. In particular, the NO/ONOO^− ratio can serve as an indicator of normal epithelial cell function.
Human umbilical vein endothelial cells (HUVECs) were isolated into primary cultures from female donors by Clonetics (San Diego, Calif.) and purchased as proliferating cells. All cell culture donors were healthy, with no pregnancy or prenatal complications. […] The confluent cells (4 to 5×10^5 cells/35 mm dish) were placed with minimum essential medium containing 3 mM L-arginine and 0.1 mM BH4 [(6R)-5,6,7,8-tetrahydrobiopterin]. Before experimental use, the cells (from second or third passage) were rinsed twice with Tyrode-HEPES buffer with 1.8 mM CaCl2).
The effects of EPA treatment were tested in the absence and presence of statins in HUVECs following exposure to oxidized LDL (oxLDL). The oxLDL causes eNOS uncoupling and endothelial dysfunction to reproduced disease-like conditions. Venous blood from healthy normolipidemic volunteers was collected into Na-EDTA (1 mg/mL blood) vacuum tubes after a 12-hour fast. Plasma was immediately separated by centrifugation at 3,000 g for 10 minutes at 4° C. […] The purified LDL was dialyzed for 96 hours against PBS containing 0.3 mM EDTA at 4° C., then stored at 4° C.
A sample of LDL was dialyzed against Tris/NaCl Buffer (50 mM Tris in 0.15 M NaCl, pH 8.0) to remove the EDTA. Tris-NaCl buffer was added to the dialyzed n-LDL to adjust the protein concentration to 30 mg/mL. A 1-mL aliquot of 20 μM CuSO4 was added to 1 mL of dialyzed normal LDL. Oxidation at 37° C. was followed spectrophotometrically (234 nm) over a period of 24 hours until oxidation was complete. The oxLDL was then dialyzed at 4° C. with 4 L of Tris buffer, filtered with a 0.22 μm filter, and stored under nitrogen at 4° C.
Oxidation was monitored by the use of measurements of TBARS. Briefly, LDL was incubated with thiobarbituric acid (0.5 wt/vol, in H2SO4, 50 mM) for 30 minutes at 100° C. […] TBARS concentration was determined as malondialdehyde (MDA) equivalents with the use of an MDA standard curve.
Concurrent measurements of NO and ONOO^− were performed with tandem electrochemical nanosensors combined into one working unit with a total diameter of 200-400 nm. Their design was based on previously developed and chemically modified carbon-fiber technology. Each of the nanosensors was made by depositing a sensing material on the tip of a carbon fiber (length 4 to 5 μm, diameter 100-200 nm). The fibers were sealed with nonconductive epoxy and electrically connected to copper wires with conductive silver epoxy. Conductive films of polymeric Ni(II) tetrakis (3-methoxy-4-hydroxyphenyl) porphyrin and Mn(III) [2.2] paracyclophanylporphyrin were used for the NO and ONOO^− sensors, respectively.
The amperometric method (with a response time of 0.1 ms) provides a quantitative signal (current) that is directly proportional to changes (from basal levels) in NO or ONOO^− concentration. Amperometric measurements were performed with a Gamry III double-channel potentiostat. Basal NO or ONOO^− levels were measured by differential pulse voltammetry in separate experiments.
All measurements of NO and ONOO^− were performed on intact endothelial cells. The NO/ONOO^− nanosensor module was positioned 5±2 μm from the surface of each individual endothelial cell using a computer-controlled M3301 micromanipulator (x-y-z resolution of 0.2 μm) and microscope (both from World Precision Instruments, Berlin, Germany) fitted with a CD camera.

[2] = tested on: human umbilical vein epithelial cells (HUVECs); experiment: NO and ONOO^− release by HUVECs following stimulation with oxidized LDL (Example 2); assay type: cell-based; settings: calcium ionophore 1.0 μM, oxLDL 10 mg/dL, EPA 10.0 μM, rosuvastatin or ATM 1.0 μM
Procedure: An experiment was conducted to test the effects of EPA with rosuvastatin or atorvastatin active o-hydroxyl metabolite (“ortho-hydroxy atorvastatin” or “ATM”) on nitric oxide (NO) and peroxynitrite (ONOO^−) release by human umbilical vein epithelial cells (“HUVECs”) following stimulation with oxidized LDL. Nitric oxide bioavailability, peroxynitrite bioavailability, and the ratio of bioavailable nitric oxide to bioavailable peroxynitrite (NO/ONOO^−) serve as useful indicators of endothelial cell function. In particular, the NO/ONOO^− ratio can serve as an indicator of normal epithelial cell function.
In this experiment, HUVECs were equipped with prophyrinic nanosensors and then treated with calcium ionophore (1.0 μM). The HUVECs were then exposed to a solution of oxidized LDL (10 mg/dL).
HUVECs exposed to oxLDL were then treated with EPA alone (10.0 μM), a combination of EPA (10.0 μM) and rosuvastatin (1.0 μM), or a combination of EPA (10.0 μM) and ATM (1.0 μM).

[3] = HUVECs exposed to oxLDL, EPA 10 μM
[4] = compared to treatment with oxLDL and vehicle only, EPA 10 μM

SMILES | increase in NO/ONOO^− ratio ([1]; EPA 10 μM) [%] | NO [2] [nM] | NO/ONOO^− [2] | ONOO^− [2] [nM] | NO release [1, 3] [nM] | ONOO^− release [1, 3] [nM] | increase in NO release [1, 4] [%] | reduction of ONOO^− release [1, 4] [%] | increase in NO/ONOO^− ratio (in words) ([1]; HUVECs exposed to oxLDL, VAS2870 alone or with EPA and statin)
CC(C)c1c(C(=O)Nc2ccccc2O)c(-c2ccccc2)c(-c2ccc(F)cc2)n1CC[C@@H](O)C[C@@H](O)CC(=O)O [ATM, o-hydroxyatorvastatin] | 33 | 199 ± 20 | 0.8 | 236 ± 35 | – | – | – | – | –
CC/C=C\C/C=C\C/C=C\C/C=C\C/C=C\CCCC(=O)O [EPA, eicosapentaenoic acid] | 41 | 208 ± 32 | 1.0 | 203 ± 21 | 208 ± 32 | 203 ± 21 | 18 | 16 | –
c1ccc(Cn2nnc3c(Sc4nc5ccccc5o4)ncnc32)cc1 [VAS2870] | – | – | – | – | – | – | – | – | two-fold
CC(C)c1c(C(=O)Nc2ccccc2)c(-c2ccccc2)c(-c2ccc(F)cc2)n1CC[C@@H](O)C[C@@H](O)CC(=O)O [atorvastatin] | 84 | – | – | – | – | – | – | – | –
CC(C)c1nc(N(C)S(C)(=O)=O)nc(-c2ccc(F)cc2)c1/C=C/[C@@H](O)C[C@@H](O)CC(=O)O [rosuvastatin] | 21 | 191 ± 33 | 0.8 | 252 ± 39 | – | – | – | – | –
